Target: Transcription factor Jun (Homo sapiens, UniProt P05412)
Test: Inhibition of c-Jun phosphorylation in HepG2 cells

Sequence of Transcription factor Jun (P05412 whole entry): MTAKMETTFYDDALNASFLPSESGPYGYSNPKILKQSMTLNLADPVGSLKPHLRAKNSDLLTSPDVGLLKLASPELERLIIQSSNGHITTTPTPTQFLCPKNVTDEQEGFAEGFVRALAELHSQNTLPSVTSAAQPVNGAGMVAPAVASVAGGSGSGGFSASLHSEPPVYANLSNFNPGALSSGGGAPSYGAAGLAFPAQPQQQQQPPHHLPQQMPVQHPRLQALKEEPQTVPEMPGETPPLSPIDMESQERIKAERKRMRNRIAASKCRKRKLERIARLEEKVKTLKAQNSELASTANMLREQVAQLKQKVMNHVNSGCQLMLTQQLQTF

For CCOc1nc(C(=O)NCc2ccc(S(C)(=O)=O)cc2)cc(N)c1C#N [4-amino-5-cyano-6-ethoxy-N-[(4-methanesulfonylphenyl)methyl]pyridine-2-carboxamide], the EC50 was 318 nM.

From BindingDB's records for doi:10.1016/j.bmcl.2006.10.013 (Abbott Laboratories, 2007)
